From paper doi:10.1101/2025.11.27.690678v1, “Experience from an HTS campaign: Investigation of susceptibility and rescue of SARS-CoV-2 nsp3 protease assay from metal contamination” (biorxiv, 2025)

target: T1, SARS-CoV-2 nsp3 (Twinstrep nsp3 (179-1329)-His); PLPro (Severe acute respiratory syndrome coronavirus 2, UniProt P0DTD1); assay: fluorescence, RLRGG-AMC cleavage; assay type: biochemical
T1 construct: gene rep
Excerpt: fluorescence, RLRGG-AMC cleavage on SARS-CoV-2 nsp3 (Twinstrep nsp3 (179-1329)-His); PLPro

Compound | IC50 [µM]
O=C(O)c1cn(-c2cccc(C(F)(F)F)c2)nn1 [compound 1, Compound 1] | > 100
COc1ccc(-n2cc(CNC(=O)c3cc[nH]n3)nn2)cc1 [compound 3, Compound 3] | > 100
Cn1ccnc1-c1cn(CCCc2csc(N)n2)nn1 [compound 2, Compound 2] | > 100
CC(=O)Nc1ccc(Sc2ccccc2C(=O)O)cn1 [compound 4, Compound 4] | > 100
